Source: US20260250318A1, “COMPOSITIONS AND METHODS FOR CROSSING THE BLOOD BRAIN BARRIER” (VOYAGER THERAPEUTICS, INC., priority 2022, published 2026)

System: brains, heart, liver, muscle, and DRG of the NHPs
Assay: Maturation of TTM-001 and TTM-002 capsids, NGS enrichment in NHP tissues
Format: in vivo
Settings: NGS, relative to AAV9 control; for Fold Enrichment relative to AAV9, Liver RNA (NHP): TTM-001 and TTM-002 matured AAV capsid variants
Source text: This Example describes maturation of the AAV9 capsid variants, TTM-001 (SEQ ID NO: 981 (amino acid) and 983 (DNA), comprising SEQ ID NO: 941 (encoded by SEQ ID NO: 942)) and TTM-002 (SEQ ID NO: 982 (amino acid) and 984 (DNA), comprising SEQ ID NO: […] (encoded by SEQ ID NO: 944)) in NHPs to further enhance their transduction and biodistribution in the central nervous system as well as other tissues, and evolve the AAV capsid variants to provide further cross-species compatibility. Two approaches were used to mature the TTM-001 and TTM-002 capsid sequences in order to randomize and mutate within and around the peptide insert comprised within loop IV of the capsid variant. […] In the first maturation approach, sets of three contiguous amino acids were randomized across the mutagenesis region in the TTM-001 and TTM-002 sequences, which spanned from position 450 to position 466, numbered according to SEQ ID NO: 981 and 982. In the second maturation approach, mutagenic primers were used to introduce point mutations at a low frequency, scattered across the mutagenesis region in the TTM-001 and TTM-002 sequences ranging from position 449 to position 466, numbered according to SEQ ID NO: 981 and 982. AAV capsid variants arising from each maturation approach for TTM-001 and TTM-002 were pooled together, for subsequent testing and characterization in NHPs.
The library of pooled matured AAV capsid variants generated using the first maturation approach and the second maturation approach for the TTM-001 and TTM-002 AAV capsid variants were injected into two NHPs. […] Following RNA recovery and RT-PCR amplification, a systematic NGS enrichment analysis was performed to calculate the fold enrichment ratio relative to an AAV9 control, and the peptides comprised within the variants were identified.
Following the RNA recovery and NGS analysis from the second maturation approach, approximately 680,000 capsid variants were identified. The 680,000 matured capsid variants were then filtered based on samples with a raw virus count greater than 10 and a coefficient of variance (CV) of less than 1, which was calculated for each peptide across the brain samples taken from the two NHPs. […] Using this filtering criteria, this led to approximately 64,000 matured capsid variants.

Sequence	Fold Enrichment relative to AAV9, DRG (NHP)	Fold Enrichment relative to AAV9, Brain (NHP)	Fold Enrichment relative to AAV9, Heart (NHP)	Fold Enrichment relative to AAV9, Liver DNA (NHP)	Fold Enrichment relative to AAV9, Liver RNA (NHP)	Fold Enrichment relative to AAV9, Muscle (NHP)
KTINGSGSPHSKRNYQQT	0.000 fold	0.000 fold	0.000 fold	5.528 fold	12.781 fold	0.000 fold
KTINGSGSPHSKRRAQQT	0.000 fold	0.000 fold	0.000 fold	5.906 fold	26.523 fold	0.000 fold
KTINGSGSPHSKRSYQQT	0.000 fold	0.000 fold	0.000 fold	2.116 fold	28.973 fold	0.000 fold
KTINGSGSPHSKRVVQQT	0.000 fold	0.000 fold	0.000 fold	1.639 fold	11.094 fold	0.000 fold
KTINGSGSPHSKRYTQQT	0.000 fold	0.000 fold	0.000 fold	9.412 fold	25.267 fold	0.000 fold
KTINGSGSPHSKSEQQQT	0.000 fold	0.000 fold	0.000 fold	1.769 fold	11.785 fold	0.000 fold
KTINGSGSPHSKTRKQQT	0.000 fold	0.000 fold	0.000 fold	2.858 fold	36.010 fold	0.000 fold
KTINGSGSPHSKVRMQQT	0.000 fold	0.000 fold	0.000 fold	1.835 fold	11.572 fold	0.000 fold
KTINGSGSPHSKWGLQQT	0.000 fold	0.000 fold	0.000 fold	2.639 fold	17.543 fold	0.000 fold
KTINGSGSPHSKWKSQQT	0.000 fold	0.000 fold	4.904 fold	1.239 fold	20.390 fold	0.163 fold
KTINGSGSPHSKWRLQQT	0.000 fold	0.000 fold	0.000 fold	2.037 fold	68.083 fold	0.000 fold
KTINGSGSPHSKYFMQQT	0.000 fold	0.000 fold	0.000 fold	2.993 fold	57.350 fold	0.000 fold
